According to PMC12736255, “Reinvestigating Pyrrol-2-One-Based Compounds: From Antimicrobial Agents to Promising Antitumor Candidates” (Pharmaceuticals, 2025):

Assays:
UO-31 = assay: NCI-60 single-dose screen; assay type: cell-based, human; conditions: UO-31, 10^–5 M
Outline: (§1)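 Screening was run by the National Cancer Institute at one dose (10^−5 M) in its 60-line human cancer panel.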

HOP-62 = assay: NCI-60 single-dose screen; assay type: cell-based, human; conditions: HOP-62, 10^–5 M
Outline: as §1

SF-295 = assay: NCI-60 single-dose screen; assay type: cell-based, human; conditions: SF-295, 10^–5 M
Outline: as §1

U251 = assay: NCI-60 single-dose screen; assay type: cell-based, human; conditions: U251, 10^–5 M
Outline: as §1

MDA-MB-468 = assay: NCI-60 single-dose screen; assay type: cell-based, human; conditions: MDA-MB-468, 10^–5 M
Outline: as §1

BT-549 = assay: NCI-60 single-dose screen; assay type: cell-based, human; conditions: BT-549, 10^–5 M
Outline: as §1

MDA-MB-435 = assay: NCI-60 single-dose screen; assay type: cell-based; conditions: Homo sapiens; MDA-MB-435, 10^–5 M; read-out: GI (%)
Outline: as §1

SNB-75 = assay: NCI-60 single-dose screen; assay type: cell-based; conditions: Homo sapiens; SNB-75, 10^–5 M; read-out: GI (%)
Outline: as §1

SF-539 = assay: NCI-60 single-dose screen; assay type: cell-based; conditions: Homo sapiens; SF-539, 10^–5 M; read-out: GI (%)
Outline: as §1

MCF7 = assay: NCI-60 single-dose screen; assay type: cell-based; conditions: Homo sapiens; MCF7, 10^–5 M; read-out: GI (%)
Outline: as §1

SR = assay: NCI-60 single-dose screen; assay type: cell-based; conditions: Homo sapiens, 10^–5 M, read-out: GI (%)
Outline: as §1

NCI-H460 = assay: NCI-60 single-dose screen; assay type: cell-based; conditions: Homo sapiens; NCI-H460, 10^–5 M; read-out: GI (%)
Outline: as §1

HCT-15 = assay: NCI-60 single-dose screen; assay type: cell-based; conditions: Homo sapiens; HCT-15, 10^–5 M; read-out: GI (%)
Outline: as §1

M14 = assay: NCI-60 single-dose screen; assay type: cell-based; conditions: Homo sapiens; M14, 10^–5 M; read-out: GI (%)
Outline: as §1

K-562 = assay: NCI-60 single-dose screen; assay type: cell-based; conditions: Homo sapiens, K562; K-562, 10^–5 M; read-out: GI (%)
Outline: as §1

NCI-H522 = assay: NCI-60 single-dose screen; assay type: cell-based; conditions: Homo sapiens; NCI-H522, 10^–5 M; read-out: GI (%)
Outline: as §1

HT-29 = assay: NCI-60 single-dose screen; assay type: cell-based; conditions: Homo sapiens; HT-29, 10^–5 M; read-out: GI (%)
Outline: as §1

HS 578T = assay: NCI-60 single-dose screen; assay type: cell-based; conditions: Homo sapiens, 10^–5 M, read-out: GI (%)
Outline: as §1

OVCAR-8 = assay: NCI-60 single-dose screen; assay type: cell-based; conditions: Homo sapiens; OVCAR-8, 10^–5 M; read-out: GI (%)
Outline: as §1

SN12C = assay: NCI-60 single-dose screen; assay type: cell-based; conditions: Homo sapiens, 10^–5 M, read-out: GI (%)
Outline: as §1

SK-MEL-5 = assay: NCI-60 single-dose screen; assay type: cell-based; conditions: Homo sapiens; SK-MEL-5, 10^–5 M; read-out: GI (%)
Outline: as §1

LN-229 = assay: CellTiter-Glo 2.0 cytotoxicity, glioblastoma; assay type: cell-based, human; conditions: LN-229, 24 h
Method: Cytotoxicity of compounds was assessed using the CellTiter-Glo® 2.0 Assay (Promega, Madison, WI, USA) on human gingival fibroblasts (HGF), osteosarcoma (HOS and MG-63) and glioblastoma (LN-229 and U-118MG) cells, according to the manufacturer’s instructions. HGF, HOS, MG-63 and U-118MG cells were purchased from Cytion GmbH, Eppelheim, Germany, and LN-229 (CRL-2611) from the American Type Culture Collection (ATCC), Manassas, VA, USA. Cells were seeded (50,000 cells/mL—HGF, 100,000 cells/mL—tumor cells) into 96-well opaque white tissue culture-treated plates and allowed to adhere overnight in αMEM medium with 10% fetal bovine serum and 1% antibiotic-antimycotic (all from PAN—Biotech GmbH, Aidenbach, Germany). Cells were incubated with compounds (10 or 50 µM) for 24 h, then CellTiter-Glo® reagent was added and luminescence was recorded using a FLUOstar® Omega microplate reader (BMG LABTECH, Ortenberg, Germany). The experiments were carried out in triplicate, and the viability of treated cells was expressed as a percentage of the viability of control cells (untreated). Data were represented as means ± standard deviations. Stock solutions of compounds were prepared in DMSO, then diluted in complete cell culture media. […] Data were analyzed with independent two-tailed (Student’s) t-test, considering p < 0.05 statistically significant.

TK-10 = assay: NCI-60 5-dose screen; assay type: cell-based, human
HOP-92 = assay: NCI-60 5-dose screen; assay type: cell-based, human
SK-MEL-2 = assay: NCI-60 5-dose screen; assay type: cell-based, human
NCI-H226 = assay: NCI-60 5-dose screen; assay type: cell-based, human
T-47D = assay: NCI-60 5-dose screen; assay type: cell-based, human
PC-3 = assay: NCI-60 5-dose screen; assay type: cell-based, human
RPMI-8226 = assay: NCI-60 5-dose screen; assay type: cell-based, human
A498 = assay: NCI-60 5-dose screen; assay type: cell-based, human
[1] = Homo sapiens, read-out: LC50 (the source's name)

O=C1C(Nc2ccc(I)cc2)=CC(c2ccc(O)cc2)N1c1ccc(I)cc1 (centres unmarked) [3g]
GI (%) (UO-31): 54%
GI (%) (HOP-62): 5%
GI (%) (SF-295): 48%
GI (%) (U251): 29%
GI (%) (MDA-MB-468): 96%
GI (%) (BT-549): 54%
inhibition at 10 µM (MDA-MB-435): 38%
inhibition at 10 µM (SNB-75): 77%
inhibition at 10 µM (SF-539): 69%
inhibition at 10 µM (MCF7): 83%
inhibition at 10 µM (SR): 100%
inhibition at 10 µM (NCI-H460): 69%
inhibition at 10 µM (HCT-15): 84%
inhibition at 10 µM (M14): 52%
inhibition at 10 µM (K-562): 78%
inhibition at 10 µM (NCI-H522): 70%
inhibition at 10 µM (HT-29): 96%
inhibition at 10 µM (HS 578T): 100%
inhibition at 10 µM (OVCAR-8): 31%
inhibition at 10 µM (SN12C): 60%
inhibition at 10 µM (SK-MEL-5): 27%
cytotoxicity (activity in words) (LN-229): ineffective

O=C1C(Nc2ccc(I)cc2)=CC(c2ccc(C(F)(F)F)cc2)N1c1ccc(I)cc1 (centres unmarked) [3e]
inhibition at 10 µM (MDA-MB-435): 0%
inhibition at 10 µM (SNB-75): 100%
inhibition at 10 µM (SF-539): 37%
inhibition at 10 µM (MCF7): 44%
inhibition at 10 µM (SR): 99%
inhibition at 10 µM (NCI-H460): 43%
inhibition at 10 µM (HCT-15): 12%
inhibition at 10 µM (M14): 64%
inhibition at 10 µM (K-562): 16%
inhibition at 10 µM (NCI-H522): 53%
inhibition at 10 µM (HT-29): 32%
inhibition at 10 µM (HS 578T): 100%
inhibition at 10 µM (OVCAR-8): 43%
inhibition at 10 µM (SN12C): 60%
inhibition at 10 µM (SK-MEL-5): 0%
cytotoxicity (activity in words) (LN-229): ineffective
TGI (TK-10): >100 µM
GI50 (TK-10; Homo sapiens): > 100 µM
CC50 (TK-10; [1]): > 100 µM
TGI (HOP-92): 7.22 µM
GI50 (HOP-92; Homo sapiens): 3.15 µM
CC50 (HOP-92; [1]): > 100 µM
TGI (SK-MEL-2): >100 µM
GI50 (SK-MEL-2; Homo sapiens): > 100 µM
CC50 (SK-MEL-2; [1]): > 100 µM
TGI (NCI-H226): >100 µM
GI50 (NCI-H226; Homo sapiens): 8.48 µM
CC50 (NCI-H226; [1]): > 100 µM
TGI (T-47D): 7.57 µM
GI50 (T-47D; Homo sapiens, T47D): 2.74 µM
CC50 (T-47D; Homo sapiens, T47D, read-out: LC50 (the source's name)): > 100 µM
TGI (PC-3): >100 µM
GI50 (PC-3; Homo sapiens): 9.99 µM
CC50 (PC-3; [1]): > 100 µM
TGI (RPMI-8226): >100 µM
GI50 (RPMI-8226; Homo sapiens): 5.38 µM
CC50 (RPMI-8226; [1]): > 100 µM
TGI (A498): 3.56 µM
GI50 (A498; Homo sapiens): 1.95 µM
CC50 (A498; [1]): 6.5 µM
